# System: HMG-CoA reductase
# Experiment: HMG-CoA Reductase Inhibition Assay (in vitro, intrinsic inhibition)
# Format: biochemical
# Conditions: IC50 of test compound compared with compactin determined simultaneously, compactin assigned 100; tested as sodium salt of dihydroxy acid form; solubilized rat liver microsomal enzyme
# Experimental: The intrinsic HMG-CoA reductase inhibition activity of the claimed compounds is measured in the in vitro protocol published in J. Med. Chem., 28, p. 347-358 (1985) and described below:
# Male Holtzman Sprague-Dawley rats (225-250 g) were kept on reversed lighting and fed Purina rat chow containing 3% cholestyramine for 7 days preceding their sacrifice by CO2 asphyxiation. Livers were removed 6 hours into the dark cycle and used immediately to prepare microsomes. HMG-CoA reductase was solubilized from the freshly prepared microsome by the method of Heller and Shrewsbury [J. Biol. Chem., 1976, 251, 3815] and purified through the second ammonium sulfate precipitation step as described by Kleinsek et al. [Proc. Natl. Acad. Sci. U.S.A., 1977, 74, 1431]. The enzyme preparation was tested for HMG-CoA reductase potency and diluted with 100 mM phosphate buffer (pH 7.2) so that 100 μl of the enzyme solution, when added to the assay control, gave a value of 50,000-60,000 dpm. The enzyme preparation was stored at -80° C.
# The assay is essentially the procedure of Shefer et al. [J. Lipid Res., 1972, 13, 402]. The complete assay medium contained the following in a total volume of 0.8 ml: phosphate buffer, pH 7.2, 100 mM; MgCl2, 3 mM; NADP, 3 mM; glucose 6-phosphate, 10 mM; glucose-6-phosphate dehydrogenase, 3 enzyme units; reduced glutathione, 50 mM; HMG-CoA (glutaryl-3-^14 C., New England Nuclear), 0.2 mM (0.1 μCi); and partially purified enzyme stock solution, 100 μL.
# Test compounds or compactin (after first being converted to the sodium salt of their dihydroxy acid form in situ by addition of IN NaOH (1 equivalent) were added to the assay system in 10 μL volumes at multiconcentration levels. After a 40 minute incubation at 37° C. with shaking and, exposure to air, the reaction was stopped by the addition of 0.4 mL of 8 N HCl. After an additional 30-minute incubation period at 37° C. to ensure the complete lactonization of mevalonic acid to mevalonolactone, 0.2 ml of the mixture was added to an 0.5×5.0 cm column containing 100-200 mesh Bio-Rex 5,chloride form (Bio-Rad), wetted with distilled water, as described by Alberts et al [J. Proc. Natl. Acad. Sci. U.S.A., 1980, 77, 3967]. The unreacted [^14 C]HMG-CoA was absorbed on the resin and the [^14 C]mevalonolactone was eluted with distilled water (2×1 ml) directly into 7-ml scintillation vials. Five milliliters of Aquasol-2 (New England Nuclear) was added to each vial, and radioactivity was measured in a Packard Tri Carb Prias scintillation counter. IC50 values were determined by plotting percentage inhibition against test compound concentration and fitting a straight line to the resulting data by using the least squares method. For estimation of relative inhibitory potencies, compactin was assigned a value of 100 and the IC50 value of the test compound was compared with that of compactin determined simultaneously.
row,Compound,Relative Potency
1,C[C@H]1C=C2C=C[C@H](C)[C@H](CC[C@@H](O)C[C@@H](O)CC(=O)O)[C@H]2[C@@H](OC(=O)C(C)(C)c2ccccc2)C1,88
2,C[C@H]1C=C2C=C[C@H](C)[C@H](CC[C@@H](O)C[C@@H](O)CC(=O)O)[C@H]2[C@@H](OC(=O)C(C)(C)c2ccc(O)cc2)C1,217
3,C[C@H]1C=C2C=C[C@H](C)[C@H](CC[C@@H](O)C[C@@H](O)CC(=O)O)[C@H]2[C@@H](OC(=O)C(C)(C)c2cccc(O)c2)C1,197
4,C[C@H]1C=C2C=C[C@H](C)[C@H](CC[C@@H](O)C[C@@H](O)CC(=O)O)[C@H]2[C@@H](OC(=O)C(C)(C)Cc2ccccc2)C1,173
5,COc1ccc(C(C)(C)C(=O)O[C@H]2C[C@@H](C)C=C3C=C[C@H](C)[C@H](CC[C@@H](O)C[C@@H](O)CC(=O)O)[C@H]32)cc1,144
6,C[C@H]1C=C2C=C[C@H](C)[C@H](CC[C@@H](O)C[C@@H](O)CC(=O)O)[C@H]2[C@@H](OC(=O)C(C)(C)c2ccc(CO)cc2)C1,36
7,C[C@H]1C=C2C=C[C@H](C)[C@H](CC[C@@H](O)C[C@@H](O)CC(=O)O)[C@H]2[C@@H](OC(=O)C(C)(C)c2ccc(O)c(F)c2)C1,217
8,C[C@H]1C=C2C=C[C@H](C)[C@H](CC[C@@H](O)C[C@@H](O)CC(=O)O)[C@H]2[C@@H](OC(=O)C(C)(C)Cc2ccc(O)cc2)C1,280
9,C[C@H]1C=C2C=C[C@H](C)[C@H](CC[C@@H](O)C[C@@H](O)CC(=O)O)[C@H]2[C@@H](OC(=O)C(C)(C)Cc2cc(O)cc(O)c2)C1,333
10,C[C@H]1C=C2C=C[C@H](C)[C@H](CC[C@@H](O)C[C@@H](O)CC(=O)O)[C@H]2[C@@H](OC(=O)C(C)(C)CCc2ccccc2)C1,100
11,CCOc1ccc(C(C)(C)C(=O)O[C@H]2C[C@@H](C)C=C3C=C[C@H](C)[C@H](CC[C@@H](O)C[C@@H](O)CC(=O)O)[C@H]32)cc1,47

# — patent publication US4937263A, “Antihypercholesterolemic compounds” (Merck & Co., Inc., priority 1989, dated 1990)
